Laboratory results published in patent US20100280031A1, “LIPID FORMULATION OF APOPTOSIS PROMOTER” (priority 2009, published 2010).
Read-outs that look alike come from different tables or passages of the source.

Experiments:
[1] = PK study of ABT-263 bis-HCl liquid-filled capsules in non-fasted dogs; assay type: in vivo, beagle dogs
[2] = PK study of ABT-737 formulations in rats; assay type: in vivo, Sprague-Dawley rats; settings: for AUC(0-inf) / bioavailability / Cmax: rats, 5 mg/kg oral; for bioavailability: read-out: Bioavailability (F %)
Protocol: (§1) Serial heparinized blood samples were obtained from a tail vein of each animal prior to dosing and 0.25, 0.5, 1, 1.5, 2, 3, 4, 6, 8 and 24 hours after administration.
Analysis was performed on a Sciex API3000™ biomolecular mass analyzer with a heated nebulizer interface. ABT-737 and internal standard peak areas were determined using Sciex MacQuan™ software. The plasma drug concentration of each sample was calculated by least squares linear regression analysis (non-weighted) of the peak area ratio (parent/internal standard) of the spiked plasma standards versus concentration. The plasma concentration data were submitted to multi-exponential curve fitting using WinNonlin 3 (Pharsight).
The area under the plasma concentration-time curve from 0 to t hours (time of the last measured plasma concentration) after dosing (AUC0-t) was calculated using the linear trapezoidal rule for the plasma concentration-time profiles. The residual area extrapolated to infinity, determined as the final measured plasma concentration (Ct) divided by the terminal elimination rate constant (β), was added to AUC0-t to produce the total area under the curve (AUC0-∞). The bioavailability was calculated as the dose-normalized AUC0-∞ from oral dosing divided by the corresponding value derived from i.v. (intravenous) dosing, administered as a slow bolus to a jugular vein under light ether anesthetic.

solubility in water = settings: pH 2
Text: It will be recognized that aqueous solubility of many compounds is pH-dependent; in the case of such compounds the solubility of interest herein is at a physiologically relevant pH, for example a pH of about 1 to about 8.

[3] = PK study of ABT-263 free base formulations in rats; assay type: in vivo, Sprague-Dawley rats; settings: fasted rats, 5 mg/kg oral
Protocol: as §1

[4] = PK study of ABT-263 free base formulations in fasted dogs; assay type: in vivo, beagle dogs; settings: oral
Protocol: Serial heparinized blood samples were obtained from a jugular vein of each animal prior to dosing and 0.25, 0.5, 1, 1.5, 2, 3, 4, 6, 9, 12, 15 and 24 hours after administration. […] The bioavailability was calculated as the dose-normalized AUC0-∞ from oral dosing divided by the corresponding value derived from i.v. (intravenous) dosing, administered as a slow bolus to a cephalic vein.

[5] = food-effect PK study of ABT-263 free base formulation in dogs; assay type: in vivo, beagle dogs; settings: 10 mg/kg oral, 20 mg/ml, carrier PEG 400/Phosal 50 PG/DMSO (60:30:10)
[6] = PK study of ABT-263 free base liquid-filled capsules in non-fasted dogs; assay type: in vivo, beagle dogs
[7] = Phase 1 clinical PK study of ABT-263 bis-HCl formulation (Formulation C); assay type: in vivo, human; settings: humans
Protocol: The formulation was prepared immediately or shortly (not more than about one month) prior to oral administration.
The study had several cycles, depending on the subjects' response to the drug.
The dose doubled until one grade 3 or two grade 2 toxicities occurred, after which dose escalated in 25-40% increments. Platelet levels were monitored and reviewed to inform dose escalation decisions.
Blood and plasma samples were protected from direct sunlight during collection, processing and storage. The timing of blood collections took priority over other scheduled study activities except for dosing. The order of blood collections was maintained to the minute such that the time intervals relative to the preceding dosing were the same for all subjects.
Blood samples were collected by venipuncture into 3-ml evacuated potassium EDTA-containing collection tubes during Cycle 1 Day −3, prior to dosing (0 hour) and at 0.5, 1, 2, 3, 4, 6, 8, 24, 48 and 72 (Day 1, predose sample) hours after dosing; Day 1, at 0.5, 1, 2, 3, 4, 6, 8 and 24 (Day 2, pre-dose sample) hours after dosing; Day 14, prior to dosing (0 hour) and at 0.5, 1, 2, 3, 4, 6 and 8 hours after dosing. Additional blood samples were collected at 0 hour (pre-dose) on Day 14, Cycle 2 through Cycle 6. Sufficient blood was collected to provide approximately 1 ml plasma from each sample. A total of 27 blood samples (approximately 81 ml) were collected per subject for pharmacokinetic analysis during Cycle 1 and one additional blood sample per subject per cycle, up to Cycle 6.

[8] = carrier Labrasol/Tween 20 (70:30), 50 mg/dog
[9] = carrier Phosal 53 MCT, 50 mg/dog
[10] = carrier Phosal 53 MCT/Labrasol (70:30), 50 mg/dog
[11] = carrier Phosal 53 MCT/Tween 20 (80:20), 50 mg/dog
[12] = Sprague-Dawley, rat, plasma, po, 5 mg/kg, carrier D5W/PG/DMSO/Tween (70:20:5:5), 5 mg/ml
[13] = Sprague-Dawley, rat, plasma, po, 5 mg/kg, carrier Imwitor 380 (unneutralized)/ethanol (95:5), 10 mg/ml
[14] = Sprague-Dawley, rat, plasma, po, 5 mg/kg, carrier Phosal 50 PG/ethanol (90:10), 50 mg/ml
[15] = Sprague-Dawley, rat, plasma, po, 5 mg/kg, carrier Phosal 53 MCT/ethanol (90:10), 10 mg/ml
[16] = carrier PEG 400/DMSO (90:10), 2 mg/ml
[17] = carrier PEG 400/Phosal 50 PG/DMSO (60:30:10), 5 mg/ml
[18] = carrier PEG 400/DMSO (90:10), 2.5 mg/kg, 5 mg/ml
[19] = carrier PEG 400/DMSO (90:10), 5 mg/kg, 10 mg/ml
[20] = carrier PEG 400/DMSO (90:10), 10 mg/kg, 20 mg/ml
[21] = carrier PEG 400/Phosal 50 PG/DMSO (60:30:10), 5 mg/kg, 10 mg/ml
[22] = carrier PEG 400/Phosal 50 PG/DMSO (60:30:10), 10 mg/kg, 20 mg/ml
[23] = liquid-filled capsules, carrier Capmul PG-8, 50 mg/dog
[24] = liquid-filled capsules, carrier Capmul PG-8/Cremophor EL (90:10), 50 mg/dog
[25] = liquid-filled capsules, carrier Phosal 53 MCT/PEG 400 (70:30), 50 mg/dog
[26] = liquid-filled capsules, carrier oleic acid/PEG 400/Cremophor EL (80:10:10), 50 mg/dog
[27] = oral, carrier PEG 400/Phosal 50 PG/DMSO (60:30:10), 20 mg/kg
[28] = 315 mg/day, Day 14, non-fasting

CC1(C)CCC(c2ccc(Cl)cc2)=C(CN2CCN(c3ccc(C(=O)NS(=O)(=O)c4ccc(N[C@H](CCN5CCOCC5)CSc5ccccc5)c(S(=O)(=O)C(F)(F)F)c4)cc3)CC2)C1.Cl.Cl [ABT-263 bis-HCl]
Bioavailability (F %) ([1]; carrier Labrasol, […]): 29.4%
AUC0-∞ [1, 8]: 84800 ng·h/mL
Bioavailability (F %) [1, 8]: 39.0%
Cmax [1, 8]: 10310 ng/mL
AUC0-∞ [1, 9]: 89700 ng·h/mL
Bioavailability (F %) [1, 9]: 49.0%
Cmax [1, 9]: 9250 ng/mL
AUC0-∞ [1, 10]: 94300 ng·h/mL
Bioavailability (F %) [1, 10]: 38.5%
Cmax [1, 10]: 15830 ng/mL
Bioavailability (F %) ([1]; carrier Phosal 53 MCT/PEG 400 (70:30), […]): 40.8%
AUC0-∞ [1, 11]: 89900 ng·h/mL
Bioavailability (F %) [1, 11]: 48.5%
Cmax [1, 11]: 14020 ng/mL

CN(C)CC[C@H](CSc1ccccc1)Nc1ccc(S(=O)(=O)NC(=O)c2ccc(N3CCN(Cc4ccccc4-c4ccc(Cl)cc4)CC3)cc2)cc1[N+](=O)[O-] [ABT-737, N-(4-(4-((4′-chloro-(1,1′-biphenyl)-2-yl)methyl)piperazin-1-yl)benzoyl)-4-(((1R)-3-(dimethylamino)-1-((phenylsulfanyl)methyl)propyl)amino)-3-nitrobenzene-sulfonamide]
AUC(0-inf) [2, 12]: 230 ng·h/mL
bioavailability [2, 12]: 5.9%
AUC(0-inf) [2, 13]: 150 ng·h/mL
bioavailability [2, 13]: 3.9%
Cmax ([2]; Sprague-Dawley, rat, plasma, po, 5 mg/kg, carrier Imwitor 380 (unneutralized)/ethanol (95:5), 10 mg/ml, read-out: Cmax): 29 ng/mL
AUC(0-inf) [2, 14]: 60 ng·h/mL
bioavailability [2, 14]: 1.5%
Cmax ([2]; Sprague-Dawley, rat, plasma, po, 5 mg/kg, carrier Phosal 50 PG/ethanol (90:10), 50 mg/ml, read-out: Cmax): 24 ng/mL
AUC(0-inf) [2, 15]: 130 ng·h/mL
bioavailability [2, 15]: 3.3%
Cmax ([2]; Sprague-Dawley, rat, plasma, po, 5 mg/kg, carrier Phosal 53 MCT/ethanol (90:10), 10 mg/ml, read-out: Cmax): 28 ng/mL
Cmax ([2]; carrier D5W/PG/DMSO/Tween (70:20:5:5), 5 mg/ml): 32 ng/mL
Bioavailability in rats ([2]; regardless of the carrier): extremely low

CC1(C)CCC(c2ccc(Cl)cc2)=C(CN2CCN(c3ccc(C(=O)NS(=O)(=O)c4ccc(N[C@H](CCN5CCOCC5)CSc5ccccc5)c(S(=O)(=O)C(F)(F)F)c4)cc3)CC2)C1 [ABT-263]
solubility in water (solubility in water): less than 4 μg/ml
AUC0-∞ [3, 16]: 7530 ng·h/mL
Bioavailability (F %) [3, 16]: 21.6%
Cmax [3, 16]: 670 ng/mL
AUC0-∞ [3, 17]: 9960 ng·h/mL
Bioavailability (F %) [3, 17]: 28.5%
Cmax [3, 17]: 1050 ng/mL
AUC0-∞ [4, 18]: 27100 ng·h/mL
Cmax [4, 18]: 3670 ng/mL
AUC0-∞ [4, 19]: 39800 ng·h/mL
Bioavailability (F %) [4, 19]: 16.5%
Cmax [4, 19]: 6750 ng/mL
AUC0-∞ [4, 20]: 58300 ng·h/mL
Bioavailability (F %) [4, 20]: 12.1%
Cmax [4, 20]: 8460 ng/mL
AUC0-∞ [4, 21]: 115100 ng·h/mL
Cmax [4, 21]: 13220 ng/mL
AUC0-∞ [4, 22]: 173900 ng·h/mL
Bioavailability (F %) [4, 22]: 36.0%
Cmax [4, 22]: 21600 ng/mL
AUC0-∞ ([5]; fasted dogs): 156100 ng·h/mL
Cmax ([5]; fasted dogs): 20300 ng/mL
Bioavailability (F %) ([5]; fasted dogs, 10 mg/kg): 32.3%
AUC0-∞ ([5]; non-fasted dogs): 255600 ng·h/mL
Bioavailability (F %) ([5]; non-fasted dogs): 52.9%
Cmax ([5]; non-fasted dogs): 23500 ng/mL
AUC0-∞ [6, 23]: 59100 ng·h/mL
Bioavailability (F %) [6, 23]: 24.9%
Cmax [6, 23]: 6400 ng/mL
AUC0-∞ [6, 24]: 63300 ng·h/mL
Bioavailability (F %) [6, 24]: 27.7%
Cmax [6, 24]: 10610 ng/mL
AUC0-∞ [6, 25]: 119800 ng·h/mL
Bioavailability (F %) [6, 25]: 53.0%
Cmax [6, 25]: 21500 ng/mL
AUC0-∞ [6, 26]: 43800 ng·h/mL
Bioavailability (F %) [6, 26]: 20.5%
Cmax [6, 26]: 6840 ng/mL
AUC0-∞ [6, 27]: 537200 ng·h/mL
Bioavailability (F %) [6, 27]: 51.3%
Cmax [6, 27]: 47300 ng/mL
plasma concentration at steady state (peak) [7, 28]: about 5.5 μg/ml
plasma concentration at steady state (trough) [7, 28]: about 3 μg/ml
Tmax ([7]; single 315 mg dose, both fasting and non-fasting (FIG. 2)): around 8 hours
